As usually defined, the inhibition is the drop in the measured response relative to a control, in per cent.

The target of the experiment is T1, ERG channel (rapid delayed rectifier potassium channel, IKr) (Ovis aries, UniProt A0ACI6Q0V2).
T1 construct: gene KCNH2; native IKr in isolated left ventricular myocytes
T1 sequence (A0ACI6Q0V2 1-1163): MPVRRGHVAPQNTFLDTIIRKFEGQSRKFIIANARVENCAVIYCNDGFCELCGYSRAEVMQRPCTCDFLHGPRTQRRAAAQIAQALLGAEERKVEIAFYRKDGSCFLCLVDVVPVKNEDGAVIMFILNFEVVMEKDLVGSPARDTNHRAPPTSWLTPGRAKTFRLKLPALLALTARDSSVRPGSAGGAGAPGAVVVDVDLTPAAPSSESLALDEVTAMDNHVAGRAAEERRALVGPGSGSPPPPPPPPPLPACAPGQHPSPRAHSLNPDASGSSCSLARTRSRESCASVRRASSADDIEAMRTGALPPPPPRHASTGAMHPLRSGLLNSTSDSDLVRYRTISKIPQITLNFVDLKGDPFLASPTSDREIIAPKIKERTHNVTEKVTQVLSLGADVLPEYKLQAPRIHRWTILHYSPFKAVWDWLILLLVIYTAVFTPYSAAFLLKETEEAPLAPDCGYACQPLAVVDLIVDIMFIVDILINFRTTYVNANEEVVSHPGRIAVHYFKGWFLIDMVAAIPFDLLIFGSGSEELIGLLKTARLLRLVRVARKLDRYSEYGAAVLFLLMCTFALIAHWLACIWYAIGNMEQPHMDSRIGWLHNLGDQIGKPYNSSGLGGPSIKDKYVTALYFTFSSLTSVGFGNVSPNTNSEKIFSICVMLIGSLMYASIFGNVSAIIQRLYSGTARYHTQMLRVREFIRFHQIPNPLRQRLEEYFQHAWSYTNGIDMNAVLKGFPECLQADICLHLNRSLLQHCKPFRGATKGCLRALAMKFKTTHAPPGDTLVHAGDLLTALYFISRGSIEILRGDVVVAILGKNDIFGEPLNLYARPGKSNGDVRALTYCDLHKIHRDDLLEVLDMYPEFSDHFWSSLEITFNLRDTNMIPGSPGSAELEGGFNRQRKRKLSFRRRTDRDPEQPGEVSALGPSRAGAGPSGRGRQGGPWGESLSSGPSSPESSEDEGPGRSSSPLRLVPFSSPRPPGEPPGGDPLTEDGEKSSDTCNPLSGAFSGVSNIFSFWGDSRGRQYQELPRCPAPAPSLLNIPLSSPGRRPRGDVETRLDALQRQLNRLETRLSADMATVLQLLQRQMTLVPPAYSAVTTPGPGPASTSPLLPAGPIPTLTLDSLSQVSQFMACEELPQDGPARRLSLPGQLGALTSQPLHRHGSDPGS
Nature of the experiment: whole-cell patch-clamp of native IKr tail current. The experiment is classed as cell-based.

`c1ccc2c(c1)ccc1ccccc12` [Phe, phenanthrene] displayed an inhibition at 25 µM of 55.8%.

For the origin of these results see PMC12380724, “The air pollutant phenanthrene disrupts calcium cycling and alters repolarization in female sheep ventricular cardiomyocytes” (Physiological Reports, 2025).
